Assay results taken from publication PMC11945486, “TAS1R2/TAS1R3 Single-Nucleotide Polymorphisms Affect Sweet Taste Receptor Activation by Sweeteners: The SWEET Project” (Nutrients, 2025).
Where two headings read alike, the source gives them in different places. No end group written: not given here.

Biological target: T1, human TAS1R2-WT/TAS1R3-T716M (Homo sapiens, UniProt Q7RTX0+Q8TE23, T716M)
T1 construct: expressed in transfected cells; host or cells: HEK293T stably expressing Gα16gust44
T1 sequence (Q8TE23 20-839): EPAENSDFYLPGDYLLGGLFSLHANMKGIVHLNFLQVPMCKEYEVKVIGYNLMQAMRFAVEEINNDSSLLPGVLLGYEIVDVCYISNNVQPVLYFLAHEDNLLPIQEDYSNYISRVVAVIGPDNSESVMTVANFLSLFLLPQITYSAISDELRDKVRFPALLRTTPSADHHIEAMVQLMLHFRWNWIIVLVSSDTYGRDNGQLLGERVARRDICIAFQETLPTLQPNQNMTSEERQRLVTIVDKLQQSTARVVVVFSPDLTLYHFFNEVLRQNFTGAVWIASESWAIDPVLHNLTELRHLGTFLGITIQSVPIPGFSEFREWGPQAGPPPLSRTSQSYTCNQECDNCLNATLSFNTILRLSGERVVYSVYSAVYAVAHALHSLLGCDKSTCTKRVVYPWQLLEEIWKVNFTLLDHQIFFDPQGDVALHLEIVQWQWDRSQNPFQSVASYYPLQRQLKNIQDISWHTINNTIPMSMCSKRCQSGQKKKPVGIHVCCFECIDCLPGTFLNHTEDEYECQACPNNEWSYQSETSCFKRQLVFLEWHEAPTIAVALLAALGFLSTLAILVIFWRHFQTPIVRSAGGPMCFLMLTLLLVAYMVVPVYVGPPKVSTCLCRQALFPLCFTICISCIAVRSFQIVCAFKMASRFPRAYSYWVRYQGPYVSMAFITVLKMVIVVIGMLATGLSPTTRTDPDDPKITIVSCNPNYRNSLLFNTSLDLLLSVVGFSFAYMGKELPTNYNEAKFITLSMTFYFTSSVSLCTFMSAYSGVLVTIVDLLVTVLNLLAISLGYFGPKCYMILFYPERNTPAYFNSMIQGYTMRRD
T1 sequence (Q7RTX0 21-852 T716M): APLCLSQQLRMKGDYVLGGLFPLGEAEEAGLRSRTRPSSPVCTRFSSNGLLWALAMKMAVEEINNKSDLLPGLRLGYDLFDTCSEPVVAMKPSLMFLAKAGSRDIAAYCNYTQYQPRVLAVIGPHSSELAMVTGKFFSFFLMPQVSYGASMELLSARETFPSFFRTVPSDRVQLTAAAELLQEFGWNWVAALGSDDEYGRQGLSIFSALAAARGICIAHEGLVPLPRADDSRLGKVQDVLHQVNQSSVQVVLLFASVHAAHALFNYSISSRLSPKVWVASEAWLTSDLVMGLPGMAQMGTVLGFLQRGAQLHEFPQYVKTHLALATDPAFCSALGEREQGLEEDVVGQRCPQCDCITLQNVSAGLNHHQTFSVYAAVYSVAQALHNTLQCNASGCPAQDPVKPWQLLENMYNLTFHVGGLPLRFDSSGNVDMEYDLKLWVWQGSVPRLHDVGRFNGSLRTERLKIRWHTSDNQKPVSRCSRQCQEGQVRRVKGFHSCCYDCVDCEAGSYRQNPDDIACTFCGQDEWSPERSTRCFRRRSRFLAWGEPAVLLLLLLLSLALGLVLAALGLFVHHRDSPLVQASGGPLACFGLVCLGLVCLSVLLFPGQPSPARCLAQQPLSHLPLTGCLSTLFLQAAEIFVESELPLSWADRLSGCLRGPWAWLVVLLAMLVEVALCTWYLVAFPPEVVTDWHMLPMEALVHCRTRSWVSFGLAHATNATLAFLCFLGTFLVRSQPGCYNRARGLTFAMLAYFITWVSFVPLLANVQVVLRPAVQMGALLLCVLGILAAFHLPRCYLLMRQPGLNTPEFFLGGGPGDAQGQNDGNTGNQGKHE
Assay: Calcium mobilisation assay, TAS1R2-WT with TAS1R3 variant T716M
Assay type: cell-based
Conditions: for Max ΔF/F0: maximal signal amplitude
Source text: The coding sequences for TAS1R2 and TAS1R3 were commercially synthesised, and the human codon was optimised for expression in human cells. The coding sequences of human TAS1R2 and TAS1R3 were subcloned and inserted into the mammalian expression vectors pcDNA6/myc-HisA and pcDNA4/myc-HisA (Invitrogen; Thermo Fisher Scientific; Illkirch, France) between the EcoRI and NotI restriction sites, generating the plasmids pcDNA6-TAS1R2 and pcDNA4-TAS1R3, respectively. To increase protein expression in mammalian cells, an upstream start codon was used, which was a sequence called MAX, corresponding to the QBI SP163 element also described in pcDNA4-HisMax (Invitrogen; Thermo Fisher Scientific; Illkirch, France). To measure the expression level of the receptor by immunohistochemistry, we used the FLAG sequence ([…]) in the C-terminal position, which encodes the FLAG tag epitope. SNP variants of TAS1R2 and TAS1R3 were constructed based on […], respectively, using site-directed mutagenesis (Genewiz; Leipzig, Germany).
The HEK293T cells were kindly provided by Jay P. Slack (Givaudan Flavors Corporation; Cincinnati, OH, USA). HEK293T cells stably transfected with Gα16gust44 [43, 67] were seeded in poly-D-lysine-coated clear-bottom black 96-well plates (0.35 × 10^5 cells/well) in high-glucose DMEM supplemented with 2 mM GlutaMAX, 10% dialysed foetal bovine serum with penicillin/streptomycin and G418 (400 μg/mL) at 37 °C and 6.3% CO2 in a humidified atmosphere as previously reported. […] As a negative control, HEK293T cells were mock-transfected with the empty expression vector. After a further 24 h of incubation, the HEK293T cells were washed with C1 buffer (130 mM NaCl, 5 mM KCl, 10 mM HEPES pH 7.4 and 2 mM CaCl2). The 96-well plates containing the cells were then stimulated with sweet-tasting compounds. […] Different concentration ranges were tested depending on the sweet compound injected. The Ca^2+ changes were expressed as fractional changes in fluorescent light intensity: ΔF/F = (F − F0)/F0, where F was the fluorescent light intensity at each point, and F0 was the value of emitted fluorescent light prior to stimulus application. To calculate dose–response relationships, the changes in fluorescence upon stimulus application were averaged, mock-subtracted and baseline-corrected. The dose–response data obtained were adjusted using a 4-parameter logistic equation. The half-maximal effective concentrations (EC50 values) and maximal signal amplitudes were calculated using SigmaPlot software (version 15.0) (Systat Software; San Jose, CA, USA).
For in vitro calcium mobilisation assay performed on hTAS1R2-SNPs, hTAS1R3-SNPs and mTAS1R3-I60T, 6 to 7 concentrations were tested for each sweet compound, plus buffer alone. All concentration–receptor combinations were measured in duplicate, and each experiment was repeated at least 4 times (8 wells/concentration). Results were expressed for each concentration as ΔF/F mean ± SEM and represented as dose–response curves.

Q: What does the source list for OC[C@H]1O[C@H](O[C@]2(CCl)O[C@H](CCl)[C@@H](O)[C@@H]2O)[C@H](O)[C@@H](O)[C@H]1Cl [Sucralose]?
A: R1 = Variant EC50/WT EC50: 1.5; Max ΔF/F0: 0.47 ± 0.02; EC50 (read-out: EC50): 161 ± 14 µM

Q: How did the EC50 (read-out: EC50) turn out when O=S(=O)(O)NC1CCCCC1 [Cyclamate, cyclamate] was run?
A: The EC50 was 1860 ± 45 µM.

Q: With C=C(C)[C@@H]1CC=C(/C=N/O)CC1 [Perillartine, perillartine] as the compound, how does the “R1 = Variant EC50/WT EC50” value read?
A: The value was 1.6.

Q: And the “Max ΔF/F0” value?
A: The value was 1.73 ± 0.33.

Q: And the EC50 (read-out: EC50)?
A: The EC50 was 21.6 ± 11.4 µM.

Q: For C=C1C[C@@]23CC[C@H]4[C@@](C)(CCC[C@@]4(C)C(=O)O[C@@H]4O[C@H](CO)[C@@H](O)[C@H](O[C@@H]5O[C@H](CO)[C@@H](O)[C@H](O)[C@H]5O)[C@H]4O[C@@H]4O[C@H](CO)[C@@H](O)[C@H](O)[C@H]4O)[C@@H]2CC[C@]1(O[C@@H]1O[C@H](CO)[C@@H](O)[C@H](O[C@@H]2O[C@H](CO)[C@@H](O)[C@H](O)[C@H]2O)[C@H]1O[C@@H]1O[C@H](CO)[C@@H](O)[C@H](O)[C@H]1O)C3 [Rebaudioside M, rebaudioside M], which “R1 = Variant EC50/WT EC50” value is on record?
A: The value was 0.8.

Q: What about the “Max ΔF/F0” value of the same compound?
A: Its value is 1.10 ± 0.06.

Q: What about the EC50 (read-out: EC50) of the same compound?
A: The EC50 was 30.7 ± 4 µM.

Q: Which results are given for COc1ccc(CCC(=O)c2c(O)cc(O[C@@H]3O[C@H](CO)[C@@H](O)[C@H](O)[C@H]3O[C@@H]3O[C@@H](C)[C@H](O)[C@@H](O)[C@H]3O)cc2O)cc1O [NHDC, neohesperidin dihydrochalcone]?
A: R1 = Variant EC50/WT EC50: 1.1; Max ΔF/F0: 0.84 ± 0.09; EC50 (read-out: EC50): 55.4 ± 18.4 µM

Q: What does the source list for thaumatin?
A: R1 = Variant EC50/WT EC50: 1.0; Max ΔF/F0: 0.76 ± 0.04; EC50 (read-out: EC50): 10 ± 0.5 µM

Q: What does the source list for CC1=CC(=O)NS(=O)(=O)O1 [Acesulfame K, acesulfame K]?
A: R1 = Variant EC50/WT EC50: 1.2; Max ΔF/F0: 0.30 ± 0.01; EC50 (read-out: EC50): 739 ± 72 µM

Q: Which results are given for “brazzein (QDKCKKVYENYPVSKCQLANQCNYDCKLDKHARSGECFYDEKRNLQCICDYCEY; ends and bridges not checked; cysteine pairing not given here; UniProt P56552 1-54, looked up) [sweet-tasting protein obtained by recombinant production using the yeast Pichia pastoris]”?
A: R1 = Variant EC50/WT EC50: 1.0; EC50 (brazzein): 112.6 ± 13.6 µg/mL; Max ΔF/F0: 0.94 ± 0.04

Q: How did the “R1 = Variant EC50/WT EC50” value turn out when C[C@H](CC[C@@H](O[C@@H]1O[C@H](CO[C@@H]2O[C@H](CO)[C@@H](O)[C@H](O)[C@H]2O)[C@@H](O)[C@H](O)[C@H]1O[C@@H]1O[C@H](CO)[C@@H](O)[C@H](O)[C@H]1O)C(C)(C)O)[C@H]1CC[C@@]2(C)[C@@H]3CC=C4[C@@H](CC[C@H](O[C@@H]5O[C@H](CO[C@@H]6O[C@H](CO)[C@@H](O)[C@H](O)[C@H]6O)[C@@H](O)[C@H](O)[C@H]5O)C4(C)C)[C@]3(C)[C@H](O)C[C@]12C [Mogroside V, mogroside V] was run?
A: The value was 1.2.

Q: And the “Max ΔF/F0” value?
A: Its value is 1.01 ± 0.01.

Q: And the EC50 (read-out: EC50)?
A: The EC50 was 36.4 ± 1 µM.

Q: What does the source list for COC(=O)[C@H](Cc1ccccc1)NC(=O)[C@H](CC(=O)O)NCCC(C)(C)C [Neotame]?
A: R1 = Variant EC50/WT EC50: 1.1; Max ΔF/F0: 0.54 ± 0.01; EC50 (read-out: EC50): 1.3 ± 0.06 µM
